Source: the supplement of paper PMC10307832

Columns and labels:
Experiment in all cases: relative viability (nuclei count vs DMSO), 5 days (fraction); higher = more cells survive
IU1-47 + OSI-027 = compound: CC1=CC(=C(N1C2=CC=C(C=C2)Cl)C)C(=O)CN3CCCCC3 [IU1-47] + COc1cccc2cc(-c3nc([C@H]4CC[C@H](C(=O)O)CC4)n4ncnc(N)c34)[nH]c12 [OSI-027] (partner 0.5 µM)
Summary of the method: (§1)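 For relative viability, nuclei counts in treated wells were divided by those in vehicle wells. Lung cancer cell lines had been pin-tool dosed in 1536-well plates the day after seeding and cultured for 5 days, then fixed and stained in one step (final 0.05% Triton X-100, 1% formaldehyde, 1 ug/ml Hoechst) and imaged at 4×. Doses were one drug alone or a fixed anchor-drug dose plus five library-drug doses (not always all listed) in √10 steps, and values are duplicate-plate medians.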

IU1-47 + Tozasertib = compound: CC1=CC(=C(N1C2=CC=C(C=C2)Cl)C)C(=O)CN3CCCCC3 [IU1-47] + Cc1cc(Nc2cc(N3CCN(C)CC3)nc(Sc3ccc(NC(=O)C4CC4)cc3)n2)n[nH]1 [Tozasertib] (partner 0.1 µM)
Summary of the method: as §1

IU1-47 + AZD7762 = compound: CC1=CC(=C(N1C2=CC=C(C=C2)Cl)C)C(=O)CN3CCCCC3 [IU1-47] + NC(=O)Nc1cc(-c2cccc(F)c2)sc1C(=O)N[C@H]1CCCNC1 [AZD7762] (partner 0.2 µM)
Summary of the method: as §1

FG-4592 + Alpelisib = compound: Cc1nc(C(=O)NCC(=O)O)c(O)c2ccc(Oc3ccccc3)cc12 [FG-4592] + Cc1nc(NC(=O)N2CCC[C@H]2C(N)=O)sc1-c1ccnc(C(C)(C)C(F)(F)F)c1 [Alpelisib] (partner 2 µM)
Summary of the method: as §1

| Cell Line | relative viability (IU1-47 + OSI-027; first compound 0.08 µM) | relative viability (IU1-47 + OSI-027; first compound 0.253 µM) | relative viability (IU1-47 + OSI-027; first compound 0.8 µM) | relative viability (IU1-47 + OSI-027; first compound 2.53 µM) | relative viability (IU1-47 + OSI-027; first compound 8 µM) | relative viability (IU1-47 + Tozasertib; first compound 0.08 µM) | relative viability (IU1-47 + Tozasertib; first compound 0.253 µM) | relative viability (IU1-47 + Tozasertib; first compound 0.8 µM) | relative viability (IU1-47 + Tozasertib; first compound 2.53 µM) | relative viability (IU1-47 + Tozasertib; first compound 8 µM) | relative viability (IU1-47 + AZD7762; first compound 0.08 µM) | relative viability (IU1-47 + AZD7762; first compound 0.253 µM) | relative viability (IU1-47 + AZD7762; first compound 0.8 µM) | relative viability (IU1-47 + AZD7762; first compound 2.53 µM) | relative viability (IU1-47 + AZD7762; first compound 8 µM) | relative viability (FG-4592 + Alpelisib; first compound 0.08 µM) | relative viability (FG-4592 + Alpelisib; first compound 0.253 µM) | relative viability (FG-4592 + Alpelisib; first compound 0.8 µM) | relative viability (FG-4592 + Alpelisib; first compound 2.53 µM) | relative viability (FG-4592 + Alpelisib; first compound 8 µM) |
| --- | --- | --- | --- | --- | --- | --- | --- | --- | --- | --- | --- | --- | --- | --- | --- | --- | --- | --- | --- | --- |
| NCI-H1993 | 0.492 | 0.586 | 0.498 | 0.498 | 0.567 | 0.525 | 0.619 | 0.645 | 0.602 | 0.54 | 0.682 | 0.763 | 0.769 | 0.781 | 0.85 | 0.689 | 0.614 | 0.622 | 0.647 | 0.669 |
| NCI-H1734 | 0.703 | 0.659 | 0.662 |  | 0.565 | 0.299 | 0.252 | 0.264 |  | 0.235 | 0.639 | 0.481 | 0.487 | 0.383 | 0.517 | 0.645 | 0.685 | 0.681 | 0.686 | 0.731 |
| HOP-62 | 0.918 | 0.93 | 0.901 | 0.771 | 0.712 | 0.351 | 0.404 | 0.384 | 0.412 | 0.354 | 0.488 | 0.712 | 0.619 | 0.493 | 0.608 | 0.998 | 0.935 | 0.771 | 1.03 | 0.929 |
| LOU-NH91 | 0.798 | 0.776 | 0.728 | 0.726 | 0.685 | 0.638 | 0.693 | 0.702 | 0.737 | 0.592 | 0.824 | 0.775 | 0.826 | 0.815 | 0.765 | 0.698 | 0.614 | 0.613 | 0.719 | 0.724 |
| PC-14 | 0.881 | 0.925 | 1.11 | 0.302 | 0.847 | 0.707 | 0.685 | 0.661 |  | 0.581 | 0.404 | 0.345 | 0.377 | 0.314 | 0.275 | 0.979 | 1 | 0.988 | 0.855 | 0.956 |
| NCI-H1437 | 0.873 | 0.886 | 0.92 | 0.854 | 0.815 | 0.413 | 0.396 | 0.396 | 0.398 | 0.347 | 1.14 | 1.11 | 1.12 | 1.05 | 1.1 | 0.997 | 0.958 | 1.01 | 1.05 | 0.706 |
| NCI-H460 | 0.795 | 0.737 | 0.835 | 0.822 | 0.505 | 0.459 | 0.513 | 0.496 | 0.57 | 0.393 | 0.639 | 0.635 | 0.686 | 0.754 | 0.628 | 0.549 | 0.46 | 0.571 | 0.517 | 0.444 |
| NCI-H1666 | 0.914 | 0.86 | 0.901 | 0.879 | 0.817 | 0.563 | 0.548 | 0.593 | 0.575 | 0.595 | 0.866 | 0.86 | 0.854 | 0.803 | 0.815 | 0.866 | 0.862 | 0.953 | 0.886 | 0.644 |
| NCI-H1651 | 0.651 | 0.717 | 0.726 | 0.671 | 0.622 | 0.717 | 0.58 | 0.753 | 0.72 | 0.762 | 0.479 | 0.498 | 0.529 | 0.316 | 0.418 | 0.925 | 0.888 | 1.03 | 0.95 | 0.816 |
| NCI-H1755 | 0.759 | 0.876 | 0.777 | 0.729 | 0.686 | 0.583 | 0.687 | 0.612 | 0.631 | 0.563 | 0.429 | 0.557 | 0.57 | 0.443 | 0.377 | 0.906 | 0.888 | 0.906 | 0.945 | 0.878 |
| HARA | 0.554 | 0.406 | 0.456 |  | 0.413 | 0.0876 | 0.0862 | 0.0879 |  | 0.0969 | 0.394 |  | 0.359 | 0.176 | 0.273 | 0.805 | 0.728 |  | 0.945 | 0.827 |
| NCI-H596 | 0.817 | 0.62 | 0.743 | 0.814 | 0.739 | 0.935 | 0.978 | 0.864 | 0.887 | 0.954 | 1.06 |  | 1.03 | 0.889 | 1.03 | 0.418 | 0.482 |  | 0.499 | 0.527 |
| NCI-H23 | 0.644 | 0.587 | 0.695 | 0.583 | 0.597 | 0.364 | 0.341 | 0.427 | 0.376 | 0.341 | 0.229 |  | 0.227 | 0.18 | 0.243 | 0.663 | 0.678 | 0.772 | 0.679 | 0.673 |
| LCLC-97TM1 | 0.62 | 0.551 | 0.531 | 0.583 | 0.513 | 0.217 | 0.235 | 0.251 | 0.358 | 0.198 | 0.31 | 0.286 | 0.294 | 0.0924 | 0.245 | 0.25 | 0.214 | 0.167 |  | 0.29 |
| EPLC-272H | 0.326 | 0.325 | 0.253 |  | 0.259 | 0.228 | 0.347 | 0.246 |  | 0.145 | 0.232 | 0.205 | 0.226 |  | 0.217 | 0.834 | 0.799 | 0.643 | 0.946 | 0.887 |
| NCI-H1915 | 0.614 | 0.626 | 0.599 |  | 0.581 | 0.472 | 0.467 | 0.499 |  | 0.359 | 0.712 | 0.71 | 0.671 | 0.655 | 0.703 | 1.04 | 1.02 | 1.05 | 1.01 | 1.05 |
| NCI-H2405 | 0.664 | 0.663 | 0.695 | 0.533 | 0.618 | 0.753 | 0.801 | 0.755 | 0.735 | 0.692 | 0.795 | 0.804 | 0.853 | 0.815 | 0.739 |  | 0.399 | 0.655 | 0.638 | 0.715 |
| NCI-H322M | 0.677 | 0.553 | 0.632 | 0.568 | 0.553 | 0.496 | 0.558 | 0.506 | 0.54 | 0.477 | 0.671 | 0.696 | 0.54 | 0.615 | 0.488 | 0.194 | 0.797 | 0.595 | 0.941 | 0.852 |
| NCI-H2170 | 0.865 | 0.725 | 0.645 | 0.722 | 0.727 | 0.714 | 0.786 | 0.762 | 0.892 | 0.676 | 1.04 | 1.05 | 0.985 | 0.76 | 0.976 | 0.823 | 0.801 | 0.794 | 0.826 | 0.581 |
| NCI-H1395 | 0.58 | 0.621 | 0.665 | 0.387 | 0.554 | 0.739 | 0.692 | 0.835 | 0.8 | 0.718 | 0.422 | 0.336 | 0.414 | 0.384 | 0.392 | 0.973 | 0.914 |  | 0.896 | 0.693 |
| NCI-H358 | 0.889 | 1.15 | 1.04 | 0.676 | 0.82 | 0.089 | 0.103 | 0.0989 | 0.0928 | 0.0979 | 0.576 | 0.521 | 0.5 | 0.405 | 0.435 | 0.864 | 0.686 | 0.952 | 0.865 | 0.717 |
| NCI-H838 | 0.405 | 0.424 | 0.428 | 0.417 | 0.447 | 0.268 | 0.28 | 0.297 | 0.301 | 0.248 | 0.931 | 0.99 | 0.917 | 0.925 | 0.876 | 0.877 | 0.933 | 0.98 | 1.01 | 0.816 |
| CAL-12T | 0.764 | 0.635 | 0.675 | 0.631 | 0.683 | 0.408 | 0.326 | 0.34 | 0.318 | 0.287 | 0.622 | 0.695 | 0.695 | 0.601 | 0.629 | 1.13 | 1.23 | 1.55 | 1.13 | 0.971 |
